The conditions of data set [1]: measured by a laser granulometer. On the procedure:
Step 3: 0.2 g of donepezil semi pamoate seed crystals (the preparation method refers to example 4 of patent WO2013078608) were added into the filtrate obtained in step 1 to obtain a solution. Then the filtrate obtained in step 2 was slowly and dropwise added into the above solution at room temperature over 1 hour, slowly stirred for 5-10 hours with an anchor stir bar and filtered.
Step 1 and step 2 are the same as those of powder 1 #. Step 3: 0.2 g of donepezil semi pamoate seed crystals (the preparation method is the same as above) were added into the filtrate obtained in step 1 to obtain a solution. Then the filtrate obtained in step 2 was slowly and dropwise added into the above solution at 4-10° C. over 1 hour, stirred for 1-2 hours at room temperature and filtered.
Step 1 and step 2 are the same as those of powder 1 #. Step 3: 0.2 g of donepezil semi pamoate seed crystals (the preparation method refers to patent WO2013078608) were added into the filtrate obtained in step 1 to obtain a solution. Then the obtained solution was heated to 50-60° C. The filtrate obtained in step 2 was slowly and dropwise added into the above solution. After completion of the addition, the reaction solution was cooled to room temperature, stirred for 1-2 hours, and filtered.

The conditions of data set [2]: for Appearance observed: dry powder; for Angle of repose: funnel method, arctg (H/r); for fluidity: judged from angle of repose. On the procedure:
The angle of repose is a common index for evaluating the fluidity of dry powder. When measuring the angle of repose, the funnel is fixed at a suitable height H. The dry powder prepared in Example 1 was placed in a funnel and naturally leaked to form a pile until tip of the cone almost contacts the outlet of the funnel. Then, the radius r of the bottom surface of the cone was measured, and the angle of repose is arctg (H/r).

The conditions of data set [3]: 160° C. for 2 hours. On the procedure: The powder 3 # prepared in Example 1 was placed at 160° C. for 2 hours, and the changes in appearance and weight loss thereof were recorded.

SMILES strings stand for the structures.

As to `COc1cc2c(cc1OC)C(=O)C(CC1CCN(Cc3ccccc3)CC1)C2.COc1cc2c(cc1OC)C(=O)C(CC1CCN(Cc3ccccc3)CC1)C2.O=C(O)c1cc2ccccc2c(Cc2c(O)c(C(=O)O)cc3ccccc23)c1O` [Powder 1#, donepezil semi pamoate], in data set [1], the average particle size D50 amounted to 90 ± 17 µm. In data set [2], the Appearance observed result is on record as “Homogeneous solid particles”, the Angle of repose is recorded as 28 ± 4 ° and the fluidity result is on record as “certain fluidity”.

Take `COc1cc2c(cc1OC)C(=O)C(CC1CCN(Cc3ccccc3)CC1)C2.COc1cc2c(cc1OC)C(=O)C(CC1CCN(Cc3ccccc3)CC1)C2.O=C(O)c1cc2ccccc2c(Cc2c(O)c(C(=O)O)cc3ccccc23)c1O` [Powder 3#, donepezil semi pamoate]: the average particle size D50 in data set [1] came to 13 ± 2 µm. In data set [3], the changes in appearance result was “gradually changed from light yellow to bright brown, and finally coagulated and melted”; the weight loss entry was “about 5.14%”. Also, in data set [2], the Appearance observed entry is “Homogeneous solid particles”, the Angle of repose was 42 ± 1 ° and the fluidity result is recorded as “certain fluidity”.

In data set [1], `COc1cc2c(cc1OC)C(=O)C(CC1CCN(Cc3ccccc3)CC1)C2.COc1cc2c(cc1OC)C(=O)C(CC1CCN(Cc3ccccc3)CC1)C2.O=C(O)c1cc2ccccc2c(Cc2c(O)c(C(=O)O)cc3ccccc23)c1O` [Powder 4#, donepezil semi pamoate] gave an average particle size D50 of 3 ± 1 µm. In addition, in data set [2], the Appearance observed result is recorded as “Homogeneous solid particles”, the Angle of repose turned out to be 38 ± 3 ° and the fluidity entry is reported as “certain fluidity”.

`COc1cc2c(cc1OC)C(=O)C(CC1CCN(Cc3ccccc3)CC1)C2.COc1cc2c(cc1OC)C(=O)C(CC1CCN(Cc3ccccc3)CC1)C2.O=C(O)c1cc2ccccc2c(Cc2c(O)c(C(=O)O)cc3ccccc23)c1O` [Powder 5#, donepezil semi pamoate] displayed an average particle size D50 in data set [1] of 0.9 ± 0.4 µm. Besides, in data set [2], the Appearance observed result is “Obvious static electricity,”, the Angle of repose turned out to be 50 ± 4 ° and the fluidity result is recorded as “poor fluidity”.

Consider `COc1cc2c(cc1OC)C(=O)C(CC1CCN(Cc3ccccc3)CC1)C2.COc1cc2c(cc1OC)C(=O)C(CC1CCN(Cc3ccccc3)CC1)C2.O=C(O)c1cc2ccccc2c(Cc2c(O)c(C(=O)O)cc3ccccc23)c1O` [Powder 2#, donepezil semi pamoate], for which the average particle size D50 in data set [1] was found to be 42 ± 10 µm. In addition, in data set [2], the Appearance observed entry was “Homogeneous solid particles”, the Angle of repose is 35 ± 3 ° and the fluidity result was “certain fluidity”.
